PMC12196213, “New Insights into the Anticancer Effects and Toxicogenomic Safety of Two β-Lapachone Derivatives” (Pharmaceuticals, 2025)

Legend:
Assay in all cases: ADP-Glo kinase assay
Format in all cases: biochemical
PIM1 = PIM1 (Homo sapiens, UniProt P11309); conditions: for remaining activity at 1 µM: PIM1, 1 µM compound; for remaining activity at 1 µM / remaining activity at 10 µM: 10 µM ATP, read-out: % of residual activity; for remaining activity at 10 µM: PIM1, 10 µM compound
Method: (§1) Kinase enzymatic activities of CDK5/p25, CDK9/CyclinT, HASPIN, PIM1, GSK3β, CK1ε, ABL1, and JAK3 were assayed using the luminescent ADP detection assay described in Zegzouti et al. (ADP-GloTM assay kit provided by Promega, Madison, WI, USA). Briefly, the reactions were carried out in appropriate kinase buffer, with either protein or peptide as substrate in the presence of 10 µM ATP. Assay conditions used for each kinase tested here are described in Ibrahim et al.. The Envision (PerkinElmer, Waltham, MA, USA) microplate luminometer was used to measure the transmitted signal expressed in Relative Light Unit (RLU). In order to determine the half maximal inhibitory concentration (IC50), the assays were performed in duplicate in the absence or presence of increasing doses of the tested compounds. Kinase activities are expressed in % of maximal activity, i.e., measured in the absence of inhibitor but with a similar dose of DMSO (solvent of the tested compounds).

CDK9/CyclinT = CDK9/CyclinT (Homo sapiens, UniProt P50750); conditions: 10 µM ATP, read-out: % of residual activity; for remaining activity at 1 µM: 1 µM compound; for remaining activity at 10 µM: 10 µM compound
Method: as §1

JAK3 = target: T1, JAK3 (Homo sapiens, UniProt P52333); conditions: for remaining activity at 1 µM: JAK3, 1 µM compound; for remaining activity at 1 µM / remaining activity at 10 µM: 10 µM ATP, read-out: % of residual activity; for remaining activity at 10 µM: JAK3, 10 µM compound
T1 sequence (P52333 1-1124): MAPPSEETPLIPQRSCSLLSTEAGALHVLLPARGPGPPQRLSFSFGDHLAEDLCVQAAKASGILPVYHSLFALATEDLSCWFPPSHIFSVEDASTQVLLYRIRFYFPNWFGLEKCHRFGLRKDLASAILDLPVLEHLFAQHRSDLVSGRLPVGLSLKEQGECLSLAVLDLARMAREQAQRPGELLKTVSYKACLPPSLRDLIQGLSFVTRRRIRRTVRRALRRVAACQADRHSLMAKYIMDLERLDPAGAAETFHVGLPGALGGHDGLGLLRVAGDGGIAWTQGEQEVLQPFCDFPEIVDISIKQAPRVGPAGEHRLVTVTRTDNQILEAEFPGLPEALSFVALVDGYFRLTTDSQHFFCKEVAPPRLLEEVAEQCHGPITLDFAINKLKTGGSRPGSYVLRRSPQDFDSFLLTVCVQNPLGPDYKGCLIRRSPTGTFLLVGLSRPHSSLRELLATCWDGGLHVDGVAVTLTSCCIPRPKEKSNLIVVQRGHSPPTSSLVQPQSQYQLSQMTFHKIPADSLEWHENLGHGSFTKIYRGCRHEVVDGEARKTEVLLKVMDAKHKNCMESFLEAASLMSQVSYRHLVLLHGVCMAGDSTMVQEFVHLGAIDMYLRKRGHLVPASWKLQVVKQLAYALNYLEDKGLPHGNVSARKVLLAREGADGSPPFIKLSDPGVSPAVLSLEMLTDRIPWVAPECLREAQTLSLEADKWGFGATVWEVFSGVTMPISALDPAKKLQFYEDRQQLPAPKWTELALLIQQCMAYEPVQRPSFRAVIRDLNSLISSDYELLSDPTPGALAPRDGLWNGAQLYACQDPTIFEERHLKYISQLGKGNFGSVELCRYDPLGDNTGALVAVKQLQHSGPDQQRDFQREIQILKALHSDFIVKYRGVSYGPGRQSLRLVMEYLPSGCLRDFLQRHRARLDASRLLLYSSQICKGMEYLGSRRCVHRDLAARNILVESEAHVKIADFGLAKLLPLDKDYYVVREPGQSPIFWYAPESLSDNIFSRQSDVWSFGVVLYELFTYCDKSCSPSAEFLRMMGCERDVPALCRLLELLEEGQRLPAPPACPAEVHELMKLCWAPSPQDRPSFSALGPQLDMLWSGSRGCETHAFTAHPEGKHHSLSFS
Method: as §1

HASPIN = target: T2, HASPIN (Homo sapiens, UniProt Q8TF76); conditions: 10 µM ATP, read-out: % of residual activity; for remaining activity at 1 µM: 1 µM compound; for remaining activity at 10 µM: 10 µM compound
T2 sequence (Q8TF76 470-798 limits assumed): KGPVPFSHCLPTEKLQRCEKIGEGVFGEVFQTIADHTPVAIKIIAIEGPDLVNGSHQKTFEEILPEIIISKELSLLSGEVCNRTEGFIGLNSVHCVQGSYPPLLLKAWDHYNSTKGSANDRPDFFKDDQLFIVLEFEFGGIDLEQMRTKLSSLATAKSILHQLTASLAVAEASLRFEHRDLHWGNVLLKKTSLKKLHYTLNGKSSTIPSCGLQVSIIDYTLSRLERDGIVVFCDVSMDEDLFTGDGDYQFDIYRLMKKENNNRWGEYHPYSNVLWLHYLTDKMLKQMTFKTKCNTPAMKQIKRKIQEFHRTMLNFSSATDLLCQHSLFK
Method: as §1

CDK5/p25 = CDK5/p25 (Homo sapiens, UniProt Q00535); conditions: 10 µM ATP, read-out: % of residual activity; for remaining activity at 1 µM: CDK5/p25, 1 µM compound; for remaining activity at 10 µM: CDK5/p25, 10 µM compound
Method: as §1

CK1ε = CK1ε (Homo sapiens, UniProt P49674); conditions: 10 µM ATP, read-out: % of residual activity; for remaining activity at 1 µM: 1 µM compound; for remaining activity at 10 µM: 10 µM compound
Method: as §1

[1] = PIM1, dose–response curve, Figure 5
[2] = JAK3, dose–response curve, Figure 5

Chain of CK1ε (P49674 whole entry): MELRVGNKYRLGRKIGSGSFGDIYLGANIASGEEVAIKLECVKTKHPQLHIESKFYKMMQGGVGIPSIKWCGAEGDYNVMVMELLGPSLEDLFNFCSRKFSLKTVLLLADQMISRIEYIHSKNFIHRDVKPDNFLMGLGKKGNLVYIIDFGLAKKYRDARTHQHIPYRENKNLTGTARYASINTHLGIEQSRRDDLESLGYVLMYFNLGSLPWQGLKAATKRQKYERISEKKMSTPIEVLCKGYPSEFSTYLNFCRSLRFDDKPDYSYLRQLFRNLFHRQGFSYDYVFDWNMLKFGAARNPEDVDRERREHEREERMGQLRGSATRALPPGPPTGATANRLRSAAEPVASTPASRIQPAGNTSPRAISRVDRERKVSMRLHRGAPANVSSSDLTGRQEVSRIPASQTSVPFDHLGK
Chain of CDK5/p25 (Q00535 whole entry): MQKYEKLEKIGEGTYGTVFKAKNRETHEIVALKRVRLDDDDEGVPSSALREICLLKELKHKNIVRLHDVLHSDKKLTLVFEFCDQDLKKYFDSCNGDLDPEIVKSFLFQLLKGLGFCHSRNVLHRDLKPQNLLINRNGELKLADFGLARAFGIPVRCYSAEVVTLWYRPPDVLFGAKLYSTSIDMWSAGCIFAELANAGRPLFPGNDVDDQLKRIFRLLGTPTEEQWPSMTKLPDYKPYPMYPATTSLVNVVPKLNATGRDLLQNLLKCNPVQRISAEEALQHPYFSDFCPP
Chain of CDK5/p25 (Q15078 99-307 partner limits assumed): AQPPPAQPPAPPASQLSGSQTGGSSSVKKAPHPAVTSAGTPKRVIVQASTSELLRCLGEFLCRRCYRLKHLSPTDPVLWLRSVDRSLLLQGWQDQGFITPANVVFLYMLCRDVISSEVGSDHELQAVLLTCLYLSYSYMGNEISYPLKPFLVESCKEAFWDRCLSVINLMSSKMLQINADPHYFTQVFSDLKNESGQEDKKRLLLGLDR
Chain of CDK9/CyclinT (P50750 whole entry): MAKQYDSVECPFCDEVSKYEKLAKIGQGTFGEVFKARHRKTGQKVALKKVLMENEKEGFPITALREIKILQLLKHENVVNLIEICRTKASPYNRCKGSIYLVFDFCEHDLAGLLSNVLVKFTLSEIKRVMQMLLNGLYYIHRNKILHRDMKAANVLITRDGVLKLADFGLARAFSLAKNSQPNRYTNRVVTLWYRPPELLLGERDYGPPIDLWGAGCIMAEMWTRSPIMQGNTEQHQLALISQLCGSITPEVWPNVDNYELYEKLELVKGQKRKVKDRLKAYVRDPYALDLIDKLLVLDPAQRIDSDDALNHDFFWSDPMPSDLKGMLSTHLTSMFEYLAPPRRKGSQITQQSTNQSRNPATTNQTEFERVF
Chain of CDK9/CyclinT (O60563 whole entry partner): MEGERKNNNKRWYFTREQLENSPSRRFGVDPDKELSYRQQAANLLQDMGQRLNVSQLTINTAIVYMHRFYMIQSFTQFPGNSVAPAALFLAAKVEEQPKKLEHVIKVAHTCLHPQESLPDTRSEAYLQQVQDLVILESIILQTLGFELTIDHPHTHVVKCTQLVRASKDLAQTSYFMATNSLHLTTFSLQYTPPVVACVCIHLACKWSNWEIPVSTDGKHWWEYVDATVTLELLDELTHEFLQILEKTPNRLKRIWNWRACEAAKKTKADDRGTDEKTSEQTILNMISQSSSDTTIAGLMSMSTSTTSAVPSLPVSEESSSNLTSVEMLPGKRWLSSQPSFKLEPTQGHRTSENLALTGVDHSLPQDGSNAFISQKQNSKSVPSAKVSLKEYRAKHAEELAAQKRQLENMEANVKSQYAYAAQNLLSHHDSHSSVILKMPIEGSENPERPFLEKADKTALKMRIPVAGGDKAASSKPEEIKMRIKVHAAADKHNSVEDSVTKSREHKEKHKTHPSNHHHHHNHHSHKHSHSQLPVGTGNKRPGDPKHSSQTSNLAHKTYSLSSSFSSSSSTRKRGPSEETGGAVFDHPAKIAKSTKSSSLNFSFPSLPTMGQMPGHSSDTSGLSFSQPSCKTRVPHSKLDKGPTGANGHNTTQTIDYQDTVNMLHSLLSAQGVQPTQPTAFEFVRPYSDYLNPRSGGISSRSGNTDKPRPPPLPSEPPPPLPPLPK
Chain of PIM1 (P11309 whole entry): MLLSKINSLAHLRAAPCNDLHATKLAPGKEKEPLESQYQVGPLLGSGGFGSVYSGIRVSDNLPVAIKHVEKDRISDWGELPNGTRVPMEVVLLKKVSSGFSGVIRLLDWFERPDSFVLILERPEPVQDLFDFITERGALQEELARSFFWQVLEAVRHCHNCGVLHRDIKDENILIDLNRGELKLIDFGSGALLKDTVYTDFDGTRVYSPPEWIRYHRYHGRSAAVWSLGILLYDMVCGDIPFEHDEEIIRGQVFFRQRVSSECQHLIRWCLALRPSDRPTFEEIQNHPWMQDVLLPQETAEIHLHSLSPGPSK

Row | Structure (SMILES) | remaining activity at 1 µM (PIM1) | IC50 (PIM1; PIM1, 10 µM ATP) | remaining activity at 10 µM (PIM1) | IC50 (PIM1; [1]) | remaining activity at 1 µM (CDK9/CyclinT) | remaining activity at 10 µM (CDK9/CyclinT) | remaining activity at 1 µM (JAK3) | remaining activity at 10 µM (JAK3) | IC50 (JAK3; [2]) | remaining activity at 1 µM (HASPIN) | remaining activity at 10 µM (HASPIN) | remaining activity at 1 µM (CDK5/p25) | remaining activity at 10 µM (CDK5/p25) | remaining activity at 1 µM (CK1ε) | remaining activity at 10 µM (CK1ε) | IC50 (JAK3; JAK3, 10 µM ATP)
1 | CC1(C)CCC2=C(O1)c1ccccc1/C(=N/NC(=S)Nc1ccc([N+](=O)[O-])cc1)C2=O [BV3, 2-(2,2-dimethyl-5-oxo-3,4-dihydro-2H-benzo[h]chromen-6(5H)-ylidene)-N-(4nitrophen-yl)thio-carbohydrazide] | ≥ 100% | 4.15 µM | 18% | 4.16 µM | ≥ 100% | 67% | -3% | -9% | 0.115 µM | ≥ 100% | ≥ 100% | ≥ 100% | 44% | ≥ 100% | 98% | –
2 | Cc1ccc(NC(=S)N/N=C2\C(=O)C3=C(OC(C)(C)CC3)c3ccccc32)cc1 [BV5, 2-(2,2-dimethyl-5-oxo-3,4-dihydro-2H-benzo[h]chromen-6(5H)-ylidene)-N-(p-tolyl)-thiocarbohydrazide] | 94% | 8.74 µM | 42% | 8.74 µM | ≥ 100% | 78% | 64% | 4% | 0.522 µM | ≥ 100% | ≥ 100% | ≥ 100% | 62% | 98% | 86% | 0.52 µM
3 | CC1(C)CCC2=C(O1)c1ccccc1C(=O)C2=O [β-lap, β-Lapachone] | 56% | – | 42% | – | ≥ 100% | 72% | 65% | 69% | – | ≥ 100% | 91% | 74% | 88% | ≥ 100% | 94% | –
